Source: PMC9583322, “Vicinal Diaryl-Substituted Isoxazole and Pyrazole Derivatives with In Vitro Growth Inhibitory and In Vivo Antitumor Activity” (ACS Omega, 2022)

Assays:
Test in all cases: NCI-60 single-dose screen
Format in all cases: cell-based
NCI/ADR-RES = conditions: Homo sapiens, Ovarian Cancer, read-out: % Growth Inhibition (GI%)
Description: (§1) Moreover, in vitro single-dose anticancer screening of 11 and 85 at 10 μM was performed utilizing the stable panel of 60 cell lines comprising 9 different cancer types at the National Cancer Institute (NCI) under the Developmental Therapeutics Program (Table S1).[31]

SF-268 = conditions: Homo sapiens, SF-268, CNS Cancer, read-out: % Growth Inhibition (GI%)
Description: as §1

HOP-62 = conditions: Homo sapiens, HOP-62, Non-Small Cell Lung Cancer, read-out: % Growth Inhibition (GI%)
Description: as §1

SK-MEL-2 = conditions: Homo sapiens, SK-MEL-2, Melanoma, read-out: % Growth Inhibition (GI%)
Description: as §1

HOP-92 = conditions: Homo sapiens, HOP-92, Non-Small Cell Lung Cancer, read-out: % Growth Inhibition (GI%)
Description: as §1

HL-60 (TB) = conditions: Homo sapiens, Leukemia, read-out: % Growth Inhibition (GI%)
Description: as §1

A498 = conditions: Homo sapiens, A498, Renal Cancer, read-out: % Growth Inhibition (GI%)
Description: as §1

NCI-H322M = conditions: Homo sapiens, Non-Small Cell Lung Cancer, read-out: % Growth Inhibition (GI%)
Description: as §1

MCF7 = conditions: Homo sapiens, MCF7, Breast Cancer, read-out: % Growth Inhibition (GI%)
Description: as §1

BT-549 = conditions: Homo sapiens, BT-549, Breast Cancer, read-out: % Growth Inhibition (GI%)
Description: as §1

OVCAR-3 = conditions: Homo sapiens, OVCAR-3, Ovarian Cancer, read-out: % Growth Inhibition (GI%)
Description: as §1

SNB-19 = conditions: Homo sapiens, SNB-19, CNS Cancer, read-out: % Growth Inhibition (GI%)
Description: as §1

OVCAR-4 = conditions: Homo sapiens, OVCAR-4, Ovarian Cancer, read-out: % Growth Inhibition (GI%)
Description: as §1

SK-MEL-5 = conditions: Homo sapiens, SK-MEL-5, Melanoma, read-out: % Growth Inhibition (GI%)
Description: as §1

HT29 = conditions: Homo sapiens, HT-29, HT29, Colon Cancer, read-out: % Growth Inhibition (GI%)
Description: as §1

KM12 = conditions: Homo sapiens, KM12, Colon Cancer, read-out: % Growth Inhibition (GI%)
Description: as §1

IGROV1 = conditions: Homo sapiens, IGROV-1, IGROV1, Ovarian Cancer, read-out: % Growth Inhibition (GI%)
Description: as §1

CAKI-1 = conditions: Homo sapiens, CAKI-1, Renal Cancer, read-out: % Growth Inhibition (GI%)
Description: as §1

MDA-MB-231 = conditions: Homo sapiens, MDA-MB-231, Breast Cancer, read-out: % Growth Inhibition (GI%)
Description: as §1

A549/ATCC = conditions: Homo sapiens, Non-Small Cell Lung Cancer, read-out: % Growth Inhibition (GI%)
Description: as §1

SN12C = conditions: Homo sapiens, Renal Cancer, read-out: % Growth Inhibition (GI%)
Description: as §1

SK-OV-3 = conditions: Homo sapiens, SK-OV-3, Ovarian Cancer, read-out: % Growth Inhibition (GI%)
Description: as §1

TK-10 = conditions: Homo sapiens, TK-10, Renal Cancer, read-out: % Growth Inhibition (GI%)
Description: as §1

MDA-MB-435 = conditions: Homo sapiens, MDA-MB-435, Melanoma, read-out: % Growth Inhibition (GI%)
Description: as §1

SK-MEL-28 = conditions: Homo sapiens, SK-MEL-28, Melanoma, read-out: % Growth Inhibition (GI%)
Description: as §1

HCT-116 = conditions: Homo sapiens, HCT-116, Colon Cancer, read-out: % Growth Inhibition (GI%)
Description: as §1

SW-620 = conditions: Homo sapiens, SW-620, Colon Cancer, read-out: % Growth Inhibition (GI%)
Description: as §1

RPMI-8226 = conditions: Homo sapiens, RPMI-8226, Leukemia, read-out: % Growth Inhibition (GI%)
Description: as §1

SF-295 = conditions: Homo sapiens, SF-295, CNS Cancer, read-out: % Growth Inhibition (GI%)
Description: as §1

UACC-62 = conditions: Homo sapiens, UACC-62, Melanoma, read-out: % Growth Inhibition (GI%)
Description: as §1

786-0 = conditions: Homo sapiens, 786-0, Renal Cancer, read-out: % Growth Inhibition (GI%)
Description: as §1

RXF 393 = conditions: Homo sapiens, RXF 393, Renal Cancer, read-out: % Growth Inhibition (GI%)
Description: as §1

OVCAR-5 = conditions: Homo sapiens, OVCAR-5, Ovarian Cancer, read-out: % Growth Inhibition (GI%)
Description: as §1

UO-31 = conditions: Homo sapiens, UO-31, Renal Cancer, read-out: % Growth Inhibition (GI%)
Description: as §1

COLO 205 = conditions: Homo sapiens, COLO 205, Colon Cancer, read-out: % Growth Inhibition (GI%)
Description: as §1

Cc1ccccc1COc1ccc(-c2noc(C)c2-c2ccc(Cl)cc2)cc1 [compound 11, 4-(4-Chlorophenyl)-5-methyl-3-(4-((2-methylbenzyl)oxy)phenyl)isoxazole]
inhibition at 10 µM (NCI/ADR-RES): 60.8%
inhibition at 10 µM (SF-268): 24.4%
inhibition at 10 µM (HOP-62): 48.4%
inhibition at 10 µM (SK-MEL-2): 62.9%
inhibition at 10 µM (HOP-92): 27.4%
inhibition at 10 µM (HL-60 (TB)): 82.3%
inhibition at 10 µM (A498): 61.4%
inhibition at 10 µM (NCI-H322M): 2.44%
inhibition at 10 µM (MCF7): 68.3%
inhibition at 10 µM (BT-549): 33.8%
inhibition at 10 µM (OVCAR-3): 79.3%
inhibition at 10 µM (SNB-19): 44.5%
inhibition at 10 µM (OVCAR-4): 17.3%
inhibition at 10 µM (SK-MEL-5): 26.6%
inhibition at 10 µM (HT29): 83.1%
inhibition at 10 µM (KM12): 45.7%
inhibition at 10 µM (IGROV1): 47.5%
inhibition at 10 µM (CAKI-1): 51.3%
inhibition at 10 µM (MDA-MB-231): 79.2%
inhibition at 10 µM (A549/ATCC): 50.7%
inhibition at 10 µM (SN12C): 31.7%
inhibition at 10 µM (SK-OV-3): 40.5%
inhibition at 10 µM (TK-10): 15.7%
inhibition at 10 µM (MDA-MB-435): 100%
inhibition at 10 µM (SK-MEL-28): 29.6%
inhibition at 10 µM (HCT-116): 66%
inhibition at 10 µM (SW-620): 68.3%
inhibition at 10 µM (RPMI-8226): 19%
inhibition at 10 µM (SF-295): 50.6%
inhibition at 10 µM (UACC-62): 51.5%
inhibition at 10 µM (786-0): 24.5%
inhibition at 10 µM (RXF 393): 29.8%
inhibition at 10 µM (OVCAR-5): 12.4%
inhibition at 10 µM (UO-31): 25.6%
inhibition at 10 µM (COLO 205): 29%

Cc1ccccc1COc1ccc(-c2ccnn2-c2ccc(Cl)cc2)cc1 [compound 85, 1-(4-Chlorophenyl)-5-(4-((2-methylbenzyl)oxy)phenyl)-1H-pyrazole]
inhibition at 10 µM (NCI/ADR-RES): 62%
inhibition at 10 µM (SF-268): 19.5%
inhibition at 10 µM (HOP-62): 50.7%
inhibition at 10 µM (SK-MEL-2): 60.8%
inhibition at 10 µM (HOP-92): 25.8%
inhibition at 10 µM (HL-60 (TB)): 86.7%
inhibition at 10 µM (A498): 42.5%
inhibition at 10 µM (NCI-H322M): 3.12%
inhibition at 10 µM (MCF7): 68.1%
inhibition at 10 µM (BT-549): 25%
inhibition at 10 µM (OVCAR-3): 73.4%
inhibition at 10 µM (SNB-19): 38%
inhibition at 10 µM (OVCAR-4): 14.3%
inhibition at 10 µM (SK-MEL-5): 33.4%
inhibition at 10 µM (HT29): 82.4%
inhibition at 10 µM (KM12): 49.3%
inhibition at 10 µM (IGROV1): 42.5%
inhibition at 10 µM (CAKI-1): 40.3%
inhibition at 10 µM (MDA-MB-231): 75.8%
inhibition at 10 µM (A549/ATCC): 50.5%
inhibition at 10 µM (SN12C): 32.4%
inhibition at 10 µM (SK-OV-3): 36.3%
inhibition at 10 µM (TK-10): 16.2%
inhibition at 10 µM (MDA-MB-435): 99.2%
inhibition at 10 µM (SK-MEL-28): 30.6%
inhibition at 10 µM (HCT-116): 61.9%
inhibition at 10 µM (SW-620): 70.3%
inhibition at 10 µM (RPMI-8226): 22.6%
inhibition at 10 µM (SF-295): 46.9%
inhibition at 10 µM (UACC-62): 39.3%
inhibition at 10 µM (786-0): 17.2%
inhibition at 10 µM (RXF 393): 39.7%
inhibition at 10 µM (OVCAR-5): 8.29%
inhibition at 10 µM (UO-31): 25.6%
inhibition at 10 µM (COLO 205): 28.8%
